According to ChEMBL document CHEMBL6121023, “Discovery of proteolytically stable monocyte locomotion inhibitory factor peptide through systematic structural optimization” (Eur J Med Chem, 2025):
Active and inactive are the calls of the source. The rule behind the calls is not given here. Positions of bridges follow the written chain, without caps; N, C: chain ends. Non-standard residues stand in square brackets, D forms with d. Residues, ends and D or L forms follow the SMILES beside them. ξ: configuration not given here. *: point of attachment. Propanoyl(3-(MeO(CH2CH2O)2)) = COCCOCCOCCC(=O)*; X1 = COCCOCCOCCOCCOCCOCCOCCC(=O)*; NMeQ = CN[C@@H](CCC(N)=O)C(=O)O; NMeN = CN[C@@H](CC(N)=O)C(=O)O; X2 = COCCOCCOCCOCCOCCC(=O)*; NMeC = CN[C@@H](CS)C(=O)O; NMeS = CN[C@@H](CO)C(=O)O; Heptanoyl = CCCCCCC(=O)*; Orn = NCCC[C@H](N)C(=O)O; ξNMeM = CNC(CCSC)C(=O)O; Pentanoyl = CCCCC(=O)*; ξM = CSCCC(N)C(=O)O

Experiments:
RAW264.7 [1] = experiment: Antiinflammatory activity in LPS-induced mouse RAW264.7 cells assessed as inhibition of IL-1beta expression at 1 microg/ml preincubated with compound for 24 hrs followed by LPS addition for 6 hrs by ELISA method; type: functional, cell-based; conditions: dose 1.0 µg/ml, time 30.0 hrs
RAW264.7 [2] = experiment: Antiinflammatory activity in LPS-induced mouse RAW264.7 cells assessed as inhibition of TNF-alpha expression at 1 microg/ml preincubated with compound for 24 hrs followed by LPS addition for 6 hrs by ELISA method; type: functional, cell-based; conditions: dose 1.0 µg/ml, time 30.0 hrs
[3] = Cytotoxicity against mouse RAW264.7 cells assessed as cell viability at 1 microg/ml measured after 24 hrs by CCK-8 assay; type: toxicity, cell-based; conditions: at 1 µg/mL, read-out: Activity
RAW264.7 [4] = experiment: Antiinflammatory activity in LPS-induced mouse RAW264.7 cells assessed as inhibition of NO generation at 1 microg/ml preincubated with compound for 24 hrs followed by LPS addition for 6 hrs by DAF-FM diacetate probe based analysis; type: functional, cell-based; conditions: dose 1.0 µg/ml
Mus musculus = experiment: Anti-inflammatory activity against collagenase-induced osteoarthritis C57BL/6J mouse model assessed as improvement in cartilage thickness at 1 mg/kg, ip measured on day 14 by H and E staining based analysis; type: functional, organism-based; conditions: time 14.0 day
RAW264.7 [5] = experiment: Antiinflammatory activity in LPS-induced mouse RAW264.7 cells assessed as […] in IL-1beta expression at 1 microg/ml preincubated with compound for 24 hrs followed by LPS addition for 6 hrs by ELISA method; type: functional, cell-based; conditions: dose 1.0 µg/ml, time 30.0 hrs
RAW264.7 [6] = experiment: Antiinflammatory activity in LPS-induced mouse RAW264.7 cells assessed as effect on NO level at 1 microg/ml preincubated with compound for 24 hrs followed by LPS addition for 6 hrs by DAF-FM diacetate probe based analysis; type: functional, cell-based; conditions: dose 1.0 µg/ml, time 30.0 hrs
RAW264.7 [7] = experiment: Antiinflammatory activity in LPS-induced mouse RAW264.7 cells assessed as effect on TNF-alpha level at 1 microg/ml preincubated with compound for 24 hrs followed by LPS addition for 6 hrs by ELISA method; type: functional, cell-based; conditions: dose 1.0 µg/ml, time 30.0 hrs
RAW264.7 [8] = experiment: Antiinflammatory activity in LPS-induced mouse RAW264.7 cells assessed as effect on IL-1beta level at 1 microg/ml preincubated with compound for 24 hrs followed by LPS addition for 6 hrs by ELISA method; type: functional, cell-based; conditions: dose 1.0 µg/ml, time 30.0 hrs
RAW264.7 [9] = experiment: Antiinflammatory activity in LPS-induced mouse RAW264.7 cells assessed as reduction in IL-1beta activity at 1 microg/ml preincubated with compound for 24 hrs followed by LPS addition for 6 hrs by ELISA method; type: functional, cell-based; conditions: dose 1.0 µg/ml, time 30.0 hrs

SMILES	Activity (RAW264.7 [1])	Activity (RAW264.7 [2])	viability at 24 h, 1 microg/ml [3]	Activity (RAW264.7 [4])	Activity (Mus musculus)	Activity (RAW264.7 [5])	Activity (RAW264.7 [6])	Activity (RAW264.7 [7])	Activity (RAW264.7 [8])	Activity (RAW264.7 [9])
CSCC[C@H](N)C(=O)N[C@H]1CCCCNC(=O)C[C@@H](C(=O)N[C@@H](CO)C(N)=O)NC(=O)[C@H](CS)NC1=O (H-MKCDS-NH2; lactam 2-4)	Active	inactive	~80%							
CSCC[C@H](N)C(=O)N[C@H]1CCCCNC(=O)CC[C@@H](C(=O)N[C@@H](CO)C(N)=O)NC(=O)[C@H](CS)NC1=O (H-MKCES-NH2; lactam 2-4)	Active		~80%	inactive						
CSCC[C@H](N)C(=O)N[C@H]1CCCNC(=O)C[C@@H](C(=O)N[C@@H](CO)C(N)=O)NC(=O)[C@H](CS)NC1=O (H-M[Orn]CDS-NH2; lactam 2-4)	Active		~80%							
CSCC[C@H](N)C(=O)N[C@H]1CCCNC(=O)CC[C@@H](C(=O)N[C@@H](CO)C(N)=O)NC(=O)[C@H](CS)NC1=O (H-M[Orn]CES-NH2; lactam 2-4)	Active		81.9%		Active					
CSCCC(N)C(=O)N[C@@H](CCC(N)=O)C(=O)N[C@@H](CS)C(=O)N[C@@H](CC(N)=O)C(=O)N(C)[C@@H](CO)C(N)=O (some centres not stated) (H-[ξM]QCN[NMeS]-NH2)		Active	~80%	inactive		Active				
CSCCC(N)C(=O)N[C@@H](CCC(N)=O)C(=O)N[C@@H](CS)C(=O)N(C)[C@@H](CC(N)=O)C(=O)N[C@@H](CO)C(N)=O (some centres not stated) (H-[ξM]QC[NMeN]S-NH2)		Active	~80%	inactive		Active				
CSCCC(N)C(=O)N[C@@H](CCC(N)=O)C(=O)N(C)[C@@H](CS)C(=O)N[C@@H](CC(N)=O)C(=O)N[C@@H](CO)C(N)=O (some centres not stated) (H-[ξM]Q[NMeC]NS-NH2)		Active	~80%	inactive		Active				
CSCCC(N)C(=O)N(C)[C@@H](CCC(N)=O)C(=O)N[C@@H](CS)C(=O)N[C@@H](CC(N)=O)C(=O)N[C@@H](CO)C(N)=O (some centres not stated) (H-[ξM][NMeQ]CNS-NH2)		Active	82.9%	Active	Active	Active				
CNC(CCSC)C(=O)N[C@@H](CCC(N)=O)C(=O)N[C@@H](CS)C(=O)N[C@@H](CC(N)=O)C(=O)N[C@@H](CO)C(N)=O (some centres not stated) (H-[ξNMeM]QCNS-NH2)		Active	~80%	inactive		Active				
CCCCCCC(=O)N[C@@H](CCSC)C(=O)N[C@@H](CCC(N)=O)C(=O)N[C@@H](CS)C(=O)N[C@@H](CC(N)=O)C(=O)N[C@@H](CO)C(N)=O (Heptanoyl-MQCNS-NH2)	Active		~80%				Active	Active	Active	
CCCCC(=O)N[C@@H](CCSC)C(=O)N[C@@H](CCC(N)=O)C(=O)N[C@@H](CS)C(=O)N[C@@H](CC(N)=O)C(=O)N[C@@H](CO)C(N)=O (Pentanoyl-MQCNS-NH2)	Active		~80%				Active	Active	Active	
COCCOCCOCCOCCOCCOCCOCCC(=O)N[C@@H](CCSC)C(=O)N[C@@H](CCC(N)=O)C(=O)N[C@@H](CS)C(=O)N[C@@H](CC(N)=O)C(=O)N[C@@H](CO)C(N)=O (X1-MQCNS-NH2)	Active		~80%				Active	Active	Active	
COCCOCCOCCOCCOCCC(=O)N[C@@H](CCSC)C(=O)N[C@@H](CCC(N)=O)C(=O)N[C@@H](CS)C(=O)N[C@@H](CC(N)=O)C(=O)N[C@@H](CO)C(N)=O (X2-MQCNS-NH2)			~80%				Active	Active	Active	Active
COCCOCCOCCC(=O)N[C@@H](CCSC)C(=O)N[C@@H](CCC(N)=O)C(=O)N[C@@H](CS)C(=O)N[C@@H](CC(N)=O)C(=O)N[C@@H](CO)C(N)=O ({Propanoyl(3-(MeO(CH2CH2O)2))}-MQCNS-NH2)			~80%				Active	Active	Active	Active
